This is an account of results in CN115227715A, “一种用于治疗癌症的联合用药物和药物组合物” (priority 2021, dated 2022).

Structures are written as SMILES.

The test system of assay [1] is colorectal cancer cells (结直肠癌细胞). Particulars: cited from earlier work.
The subject of the next assay is HSC-4 cells. Description: CX-4945-induced vacuolization, phase-contrast microscopy (Experimental Example 1, Fig. 1a). It is filed as cell-based. Conditions: 20μM CX-4945, 12h.
Assay [2] deals with Cal-27 cells. The description is as above. It is filed as cell-based. Conditions: 20μM CX-4945, 12h.
For assay [3], the system named is non-small cell lung cancer cells (非小细胞肺癌细胞). Particulars: cited from earlier work.
The subject of assay [4] is cholangiocarcinoma cells (胆管癌细胞). Particulars: cited from earlier work.
Assay [5] has as its system Cal-27 cells. Nature of the assay: Macropinocytosis marker Dextran AF488 uptake and organelle probe co-localization, confocal microscopy (Experimental Example 1, Fig. 1b-1e). It is filed as cell-based.
The subject of a further assay is HSC-3 cells. Nature of the assay: CX-4945-induced vacuolization, phase-contrast microscopy (Experimental Example 1, Fig. 1a). Particulars: 40μM CX-4945, 12h. It is filed as cell-based.
The next assay has as its target CK2 (Homo sapiens, UniProt P68400). Particulars: cited from earlier work.
A further assay has as its system UM1 cells. Description: CX-4945-induced vacuolization, phase-contrast microscopy (Experimental Example 1, Fig. 1a). It is filed as cell-based. Conditions: 40μM CX-4945, 12h.

Chain of CK2 (P68400 whole entry): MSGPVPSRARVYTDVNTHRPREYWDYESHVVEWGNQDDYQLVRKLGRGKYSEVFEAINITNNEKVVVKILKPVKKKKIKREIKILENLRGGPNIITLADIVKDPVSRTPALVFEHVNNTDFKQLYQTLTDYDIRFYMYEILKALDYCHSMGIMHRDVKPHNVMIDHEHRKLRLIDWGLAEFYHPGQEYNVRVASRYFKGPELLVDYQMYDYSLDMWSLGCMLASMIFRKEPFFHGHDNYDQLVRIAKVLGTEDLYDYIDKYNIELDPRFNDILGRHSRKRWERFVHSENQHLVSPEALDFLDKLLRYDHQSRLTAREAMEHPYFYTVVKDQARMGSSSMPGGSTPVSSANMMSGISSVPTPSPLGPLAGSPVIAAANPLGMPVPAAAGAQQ

In the case of `O=C(O)c1ccc2c(c1)nc(Nc1cccc(Cl)c1)c1ccncc12` [CX-4945], the induction of macropinocytosis result in assay [1], in assay [3] and in [4] was “可诱导巨胞饮的发生” in each case. Besides, the vacuole formation entry with HSC-4 cells, in the assay on Cal-27 cells [2], in the assay with HSC-3 cells and with UM1 cells was “均产生了空泡” in each case. Besides, the “Dextran AF488 uptake in vacuoles” value in the assay on Cal-27 cells [5] (10μM CX-4945, 0.5mg/mL Dextran AF488, 12h) is on record as “大多数空泡内都摄入了大量的Dextran AF488,呈现Dextran AF488阳性”. In the assay on Cal-27 cells [5] (10μM CX-4945, 0.5mg/mL Dextran AF488, ER-tracker, 12h), the “co-localization of Dextran AF488-positive vacuoles with endoplasmic reticulum” value is “不与内质网共定位”. In addition, the “co-localization of Dextran AF488-positive vacuoles with lysosomes” value in the assay on Cal-27 cells [5] (10μM CX-4945, 0.5mg/mL Dextran AF488, Lyso-tracker, 12h) was “有一部分与溶酶体共定位”. Besides, the “co-localization of Dextran AF488-positive vacuoles with mitochondria” value with Cal-27 cells [5] (10μM CX-4945, 0.5mg/mL Dextran AF488, Mito-tracker, 12h) is given as “不与线粒体共定位”. Further, the “selectivity as CK2 inhibitor” value on CK2 was “高度选择性”.
